Here are results for 69 sequences from patent US11725027B2, “Hypersensitive response elicitor-derived peptides and use thereof” (priority 2016, dated 2023).

Marks after values point to notes of the source that are not given here.

The subject of assay [1] is Nicotiana tabacum cultivar xanthi plants. The experiment in a line: Hypersensitive Response (HR) induction in tobacco leaves. The format is in vivo. More on the design: key to HR: Plants are considered HR-positive (“HR+”) if they exhibit wide-spread macroscopic cell death visible to the naked eye, accompanied by wilting and browning of the affected tissue within 48 hours; Plants are considered HR-negative (“HR−”) if they exhibit no discernible wilting or tissue death observable by naked eye. The conditions noted are these: for HR: tobacco leaf infused with 500, 250, 125, 62.5, 31.25 μg/ml peptide solutions, scored over 48 hours; for elicitation of HR, effect of Met to Ala mutations: tobacco. The source says: A property of a peptide to elicit a hypersensitive response, or not, upon infiltration or application of the peptide to plant tissues can be measured by applying the peptide in dry powder form or in solution form to a plant, particularly though not exclusively a plant leaf.
The minimal eliciting sequence derived from was developed based on the sequence of the hrex gene from Xanthomonas campestris pv. pelargonii. A number of truncated and mutated sequences were synthesized and tested for Hypersensitive Response induction (results in Table 4). HR in tobacco was tested as described in Wei, Science 257:85-88 (1992), which is hereby incorporated by reference in its entirety. Briefly, peptides were dissolved at a concentration of 500 μg/ml in aqueous solution. Four serial dilutions were performed with an equal volume of water, yielding peptide samples at 500, 250, 125, 62.5, 31.25 μg/ml peptide solutions. Nicotiana tabacum cultivar xanthi plants were used at 5-7 weeks old (preflowering). Leaves were lightly punctured with a toothpick in a middle leaf panel. Peptide solutions were then infused via needle-less syringe into the wound, filling the panel. Each peptide sample was infused into a leaf of 2 different plants. The leaves were observed and scored over the next 48 hours for withering and browning, lesions typical of programmed cell death. These studies had […] main goals: (1) determine the minimal sequence sufficient for HR elicitation (2) increase the solution stability of the peptides; (3) make disruptive mutations to verify the residues which are most important for HR elicitation; (4) make conservative mutations to identify the degree of specificity for particular amino acids.

Assay [2] deals with tobacco mosaic virus (TMV). Description: Induction of resistance to tobacco mosaic virus in tobacco. The format is in vivo. Particulars: % decline in TMV lesions vs UTC, spray 20 ug/ml; for Effectiveness Covered (%): covered leaf (systemic response); for Effectiveness Uncovered (%): uncovered leaf (local response). The method, then: Peptides were tested for the induction of resistance to tobacco mosaic virus (TMV) in tobacco. Briefly, three tobacco plants at 6-8 weeks old were selected per group (samples and controls). The bottom-most leaf of the plant was covered and the plant was sprayed with a solution of water (untreated control—UTC), peptide, or Proact (positive control). The spray was applied until the leaves were fully wetted, indicated by liquid dripping from the leaves. The plants were then allowed to dry and the leaf covering was removed.
Three days post-treatment, the previously-covered leaf and a leaf on the opposite side of the plant were then lightly dusted with diatomaceous earth and 20 ul of a 1.7 ug/ml solution of purified tobacco mosaic virus was applied. The TMV solution was then spread across the leaf surface by lightly rubbing solution and the diatomaceous earth across the surface of the leaves. Two minutes after inoculation, the diatomaceous earth was rinsed off the leaves with water. 3 days after TMV inoculation, the leaves were scored based on the number of TMV lesions observed. The leaf was also scored for signs of the hypersensitive response, including yellowing and wilting of the affected leaves.
Effectiveness described in Table 6 refers to the % decline in TMV lesions on treated vs UTC plants. A reduction of TMV on covered leaves indicates a systemic immune response in the plant while reduction on uncovered leaves indicates a local response. Asterisks indicate that the P-value derived from a T-test was <0.05.

In the case of SAGSEQQLDLLLEFIAAALQQ [Peptide P5-70], the HR entry in assay [1] is “-”.

Turning to SAGSEQQLDLLLEFIALQQ [Peptide P5-63], the HR entry in assay [1] is recorded as “-”.

For the sequence SEEEQLDQLLLMFIMMMLQEE [Peptide P5-34], the HR entry in assay [1] is “+”.

For the sequence SEEQLDLLLMFIMMMLQQEE [Peptide P5-47], in assay [1], the HR entry is on record as “+”. Also, in assay [2], the “Effectiveness Covered (%)” value is recorded as 78* % and the “Effectiveness Uncovered (%)” value is on record as 87* %.

SAGSEQQLDLLLAFIAEALQQ [Peptide P5-66]: the HR result in assay [1] was “Weak+”.

Turning to SAGSEQQLDLLLMFIMMELQQ [Peptide P5-44], the HR result in assay [1] was “Weak+”.

For SAGSEQQLDLLLAEIALQQ [Peptide P5-64], in assay [1], the HR result is “-”.

On to SAGSEQQEDQLLLMFIMMMLQQ [Peptide P5-53], for which the HR result in assay [1] was “-”.

For the sequence AEQGSSQLDLLLMFIMMMLQQ [Peptide P5-74], the HR result in assay [1] is given as “+”.

“NFGTPDSTVQNPQDASKPNQLDLLLMFIMMMLQQ [Peptide P5-77]”: the HR entry in assay [1] is “Weak+”.

Consider SEEELDLLLAFIAAALDD [Peptide P5-13], for which the HR result in assay [1] was “-”.

As for “ITPDGQGGGQIGDNPQLDLLLAFIAAALQQ [Peptide P5-80]”, the HR result in assay [1] is given as “Weak+”.

Consider “NFGTPDSTVQNPQDASKPNQLDLLLAFIAAALQQ [Peptide P5-78]”, for which, in assay [1], the HR entry is on record as “Weak+”.

In the case of SEEELDLLLAFIEEELEE [Peptide P5-12], in assay [1], the HR result is given as “-”.

Consider SELELLLAFIAAALEEEEE [Peptide P5-19], for which the HR result in assay [1] is given as “+”.

Turning to SAGSEQQLDQLLLMFIMMMLQQ [Peptide P5a], the HR result in assay [1] is listed as “+”.

SAGSEQQLDLLLAFIAAALQQ [Peptide P5-3]: in assay [1], the “elicitation of HR, effect of Met to Ala mutations” value is reported as “do not affect the elicitation of HR” and the HR result is “+”. In addition, in assay [2], the “Effectiveness Covered (%)” value is 70* % and the “Effectiveness Uncovered (%)” value was found to be 55%.

As for SEEEEELDLLLAFIAAALQQ [Peptide P5-8], the HR entry in assay [1] is “Weak+”. Further, in assay [2], the “Effectiveness Covered (%)” value is 99* % and the “Effectiveness Uncovered (%)” value is on record as 99* %.

Consider SAGSEQQLDELLMFIMMMLQQ [Peptide P5-36], for which, in assay [1], the HR entry is “+”.

Turning to SEEQLELLLAFIAAALQEE [Peptide P5-88], the HR result in assay [1] is listed as “+”.

As to SAGSEQQLDLLLMFEMMMLQQ [Peptide P5-41], the HR entry in assay [1] was “-”.

Regarding SEEELDLLLAFIAAALEE [Peptide P5-11], the HR result in assay [1] is “-”.

Turning to SELELLLEFIEEELEE [Peptide P5-20], the HR result in assay [1] was “-”.

On to SAGSEQQLDLLLMFIAAALQQ [Peptide P5-2], for which, in assay [1], the “elicitation of HR, effect of Met to Ala mutations” value is “do not affect the elicitation of HR” and the HR entry was “+”. For the same sequence, in assay [2], the “Effectiveness Covered (%)” value was 90* % and the “Effectiveness Uncovered (%)” value was 25%.

On to LDLLLAFIEEELEEEE [Peptide P5-10], for which, in assay [1], the HR result is on record as “-”.

For SEEQLDLLLAFIAAALQEE [Peptide P5-26], the HR entry in assay [1] is “+”.

In the case of SAGSEQQLDLLLEFIMMMLQQ [Peptide P5-39], in assay [1], the HR result is listed as “Strong+”.

For the sequence SAGSEQQEDLLLAFIALQQ [Peptide P5-61], the HR result in assay [1] is “-”.

Regarding SAGSEQQLDLLLMFIMMMEQQ [Peptide P5-45], the HR entry in assay [1] is “-”.

Turning to SEEQEELLLAFIAAALQQEE [Peptide P5-56], the HR result in assay [1] was “-”.

In the case of SAGSEQQLDELLAFIALQQ [Peptide P5-62], in assay [1], the HR entry is “-”.

Take SAGSEQQEDELLMFIMMMLQQ [Peptide P5-52]: in assay [1], the HR result is given as “-”.

Take SQAGSEQLDLLLMFIMMMLQQ [Peptide P5-73]: in assay [1], the HR entry is “+”.

Regarding SEEQEEELLAFIAAALQQEE [Peptide P5-58], the HR entry in assay [1] was “-”.

With SAGSEQQLDLLEMFIMMMLQQ [Peptide P5-38], the HR entry in assay [1] is recorded as “-”.

As to “ITPDGQGGGQIGDNPQLDLLLMFIMMMLQQ [Peptide P5-79]”, in assay [1], the HR entry is on record as “Strong+”.

Regarding SAGSEQQEDLLLAFIAAALQQ [Peptide P5-49], in assay [1], the HR entry is on record as “-”.

Regarding SAGSEQQLDELLAFIAAALQQ [Peptide P5-50], the HR result in assay [1] is reported as “Weak+”.

For SEEELDQLLLMFIMMMLEE [Peptide P5-30], the HR entry in assay [1] is reported as “+”.

For SAGSEQQLDLLLAFIEAALQQ [Peptide P5-67], the HR result in assay [1] is recorded as “-”.

In the case of SAGSEQQLDLLLMEIMMMLQQ [Peptide P5-40], the HR result in assay [1] is “Strong+”.

For SEEEEELDQLLLAFIAAAL [Peptide P5-24], in assay [1], the HR entry was “-”.

For the sequence SAGSEQQEDELLAFIAAALQQ [Peptide P5-51], the HR entry in assay [1] was “-”.

SEEEEELDLLLAFIAAAL [Peptide P5-7]: the HR result in assay [1] is reported as “-”. In assay [2], the “Effectiveness Covered (%)” value is 91* % and the “Effectiveness Uncovered (%)” value is 71%.

As for SEEEEELDLLLAFIAAALS [Peptide P5-16], in assay [1], the HR result is “-”.

With SEEEQLDLLLMFIMMMLEE [Peptide P5-31], the HR result in assay [1] is recorded as “+”.

Regarding SAGSEQQLDELLAFIAAALQQ [Peptide P5-72], the HR entry in assay [1] was “-”.

SEEELELLLAFIAAALEEEE [Peptide P5-22]: the HR result in assay [1] is listed as “+”. Further, in assay [2], the “Effectiveness Covered (%)” value turned out to be 62% and the “Effectiveness Uncovered (%)” value is listed as 82%.

Turning to SAGSEQQLDLLLAFIAAELQQ [Peptide P5-68], in assay [1], the HR entry is recorded as “-”.

As to SEEQLEELLAFIAAALQQEE [Peptide P5-57], the HR result in assay [1] is “+”.

Turning to SAGSEQQLDLLLAFIEALQQ [Peptide P5-65], the HR entry in assay [1] is reported as “-”.

Regarding SAGSEQQLDLELMFIMMMLQQ [Peptide P5-37], in assay [1], the HR entry is listed as “-”.

Take SAGSEQQLDLLLMFIEMMLQQ [Peptide P5-42]: the HR result in assay [1] is “Weak+”.

In the case of SAGSEQQLDLLLAFIAAAL [Peptide P5-6], the HR entry in assay [1] is on record as “-”. Also, in assay [2], the “Effectiveness Covered (%)” value was determined as 36% and the “Effectiveness Uncovered (%)” value was 62%.

As for SAGSEQQLDQELLMFIMMMLQQ [Peptide P5-54], in assay [1], the HR entry was “-”.

Regarding SAGSEQQLDLLLMFIMEMLQQ [Peptide P5-43], the HR entry in assay [1] is “Strong+”.

Consider SEEEEELDLLLAFIAAALE [Peptide P5-18], for which the HR entry in assay [1] was “-”.

As for SEEEQLDQLLLMFIMMMLEE [Peptide P5-32], the HR entry in assay [1] was “+”.

SAGSEQQLELLLAFIAAALQQ [Peptide P5-4]: the HR entry in assay [1] is given as “+”. Also, in assay [2], the “Effectiveness Covered (%)” value is on record as 98* % and the “Effectiveness Uncovered (%)” value is 97* %.

Consider SEEQLDLLLEFIEEELQQEE [Peptide P5-48], for which, in assay [1], the HR entry is “-”.

Take SEEEEELDLLLAFIAAALQ [Peptide P5-15]: in assay [1], the HR entry is “-”.

With SEEQLDQLLLAFIAAALEE [Peptide P5-28], the HR entry in assay [1] was “Weak+”.

For the sequence SEEEEELDQLLLAFIAAALQQ [Peptide P5-23], the HR entry in assay [1] is on record as “Weak+”.

Take SEEQLDLLLAFIAAALQQEE [Peptide P5-87]: the HR entry in assay [1] is recorded as “-”.

Regarding SAGSEQQLDQLLLAFIAAALQQ [Peptide P5-55], the HR result in assay [1] is “-”.

As for SAGSEQQLDLLLAEIAAALQQ [Peptide P5-69], in assay [1], the HR entry is recorded as “-”.

Take SEEELDLLLMFIMMMLEE [Peptide P5-29]: the HR result in assay [1] is “+”.

For SEEEEELDLLLAFIAAALGG [Peptide P5-14], the HR result in assay [1] is recorded as “Weak+”.

With SEEEEELDLLLAFIAAALA [Peptide P5-17], the HR result in assay [1] was “-”.
